According to publication PMC11941790, “Reactions of Plasmodium falciparum Type II NADH: Ubiquinone Oxidoreductase with Nonphysiological Quinoidal and Nitroaromatic Oxidants” (International Journal of Molecular Sciences, 2025):

Legend:
[1] = target: T1, type II NADH:ubiquinone oxidoreductase (PfNDH2) (Plasmodium falciparum, UniProt Q8I302); assay: steady-state kinetics, competitive inhibition vs NADH; type: biochemical
T1 construct: gene PF3D7_0915000; His-tagged PfNDH2 (pET45, E. coli)
T1 sequence (Q8I302 31-533): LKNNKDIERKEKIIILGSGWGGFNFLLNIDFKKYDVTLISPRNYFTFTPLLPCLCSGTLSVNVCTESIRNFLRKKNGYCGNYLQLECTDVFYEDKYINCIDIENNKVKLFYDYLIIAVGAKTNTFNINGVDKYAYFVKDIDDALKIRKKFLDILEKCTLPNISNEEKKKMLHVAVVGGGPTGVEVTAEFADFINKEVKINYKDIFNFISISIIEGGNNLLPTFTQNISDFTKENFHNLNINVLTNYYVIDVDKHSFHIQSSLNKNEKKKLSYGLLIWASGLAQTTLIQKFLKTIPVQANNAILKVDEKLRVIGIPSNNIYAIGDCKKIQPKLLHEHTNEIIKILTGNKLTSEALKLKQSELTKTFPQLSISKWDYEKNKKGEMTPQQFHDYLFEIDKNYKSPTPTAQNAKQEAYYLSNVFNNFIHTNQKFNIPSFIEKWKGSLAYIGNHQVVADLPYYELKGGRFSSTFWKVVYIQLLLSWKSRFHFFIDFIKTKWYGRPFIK

[2] = target: T1, type II NADH:ubiquinone oxidoreductase (PfNDH2); assay: steady-state kinetics, competitive product inhibition vs NADH with naphthazarin as acceptor; type: biochemical

Row | Ki [2] | SMILES | Ki [1]
1 |  | Nc1ncnc2c1ncn2[C@@H]1O[C@H](COP(=O)(O)OP(=O)(O)OC[C@H]2OC(O)[C@H](O)[C@@H]2O)[C@@H](O)[C@H]1O (some centres unmarked) [ADP-ribose] | 2.5 ± 0.3 mM
2 | 3.7 ± 0.4 mM | NC(=O)c1ccc[n+]([C@@H]2O[C@H](COP(=O)([O-])OP(=O)(O)OC[C@H]3O[C@@H](n4cnc5c(N)ncnc54)[C@H](O)[C@@H]3O)[C@@H](O)[C@H]2O)c1 [NAD^+] | 
